Measurements reported in the NIST ThermoML archive (doi:10.1021/je300920t).
± gives the expanded uncertainty stated by the source.

How the values were obtained:
[1] = Drop volume
[2] = xn = mol fraction of the nth substance listed; conditions: Drop volume, x1 = 0.5412

| Structure (SMILES) | surface tension liquid-gas ([1]; 293.15 K) | surface tension liquid-gas ([1]; 303.15 K) | surface tension liquid-gas ([1]; 313.15 K) | surface tension liquid-gas ([2]; 313.15 K) | surface tension liquid-gas ([2]; 323.15 K) | surface tension liquid-gas ([2]; 333.15 K) | surface tension liquid-gas ([2]; 343.15 K) |
| --- | --- | --- | --- | --- | --- | --- | --- |
| NCCO [2-aminoethan-1-ol] | 48.48 ± 0.47 mN/m | 47.64 ± 0.46 mN/m | 46.88 ± 0.46 mN/m | – | – | – | – |
| NCCO [2-aminoethan-1-ol] + O | – | – | – | 51.5 ± 1.8 mN/m | 50.4 ± 1.8 mN/m | 49.3 ± 1.8 mN/m | 48.1 ± 1.8 mN/m |
